Assay results reported in patent US7928238B2, “1,2,3,4-tetrahydro-quinoline derivatives as CETP inhibitors” (Janssen Pharmaceutica NV, priority 2006, dated 2011).
Several values for one entry are separate records, joined by “and”; a condition that tells them apart may be missing. Equal entries are not always repeated. One block for each compound: values may come before it.

How the values were obtained:
cholesterol-fed hamsters = assay: CETP in vivo assay: lipid parameters in cholesterol-fed hamsters; conditions: plasma, mean ± SEM, n = 8
Experimental: To determine the in vivo efficacy of a test compound, hamsters were first fed a moderately high cholesterol diet (Research Diets, D5012801) for two weeks before commencing treatment. The animals were orally gavaged with the vehicle (10% solutol, 5% ethanol, 85% D5W) and test compound for 5 days with the last dose being administered 2 hrs before sacrifice. Plasma was obtained and lipid parameters were measured.

CETP = target: T1, CETP (Homo sapiens, UniProt P11597); assay: CETP in vitro assay (Amersham kit TRKQ7005; modified protocol in human plasma, [3H]CE-HDL transfer); format: biochemical; conditions: for % Inhibition @ 1 μM / inhibition at 1 µM: 1 μM compound; for inhibition at 1 µM: read-out: % Inhibition @ 1 μM; for IC50: from plots of % control versus compound concentration
T1 construct: from tissue; host or cells: human plasma from normal volunteers
T1 sequence (P11597 18-493): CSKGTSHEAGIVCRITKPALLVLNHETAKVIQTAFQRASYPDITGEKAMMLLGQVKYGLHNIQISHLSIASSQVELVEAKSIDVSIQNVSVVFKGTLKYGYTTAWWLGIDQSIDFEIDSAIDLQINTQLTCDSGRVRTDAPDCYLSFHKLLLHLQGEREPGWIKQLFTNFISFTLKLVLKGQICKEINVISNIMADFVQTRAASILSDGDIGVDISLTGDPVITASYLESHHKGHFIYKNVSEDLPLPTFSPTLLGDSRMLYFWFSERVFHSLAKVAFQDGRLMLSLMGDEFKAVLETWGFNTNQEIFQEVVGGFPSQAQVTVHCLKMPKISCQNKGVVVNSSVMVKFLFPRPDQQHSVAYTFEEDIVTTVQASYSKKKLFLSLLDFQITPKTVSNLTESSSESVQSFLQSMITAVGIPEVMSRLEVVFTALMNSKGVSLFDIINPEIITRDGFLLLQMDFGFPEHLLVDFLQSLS
Procedure, shortened: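 IC50 values were derived by plotting % of vehicle control against compound concentration. Transfer was quantified by counting supernatant radioactivity after Dextralip/MgCl2 precipitation. Compound, human plasma and [3H]CE-HDL (about 25 μg/ml, as added) were incubated 4 h or more at 37 °C, with a 4 °C plate as the non-specific blank.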

[1] = test system: rabbits had severe hypercholesterolemia; conditions: rabbits with severe hypercholesterolemia; cited from earlier work
rabbits = conditions: 30 mg/kg; cited from earlier work
[2] = clinical studies; cited from earlier work
[3] = particularly in combination with Atorvastatin; cited from earlier work
[4] = 10 mg/kg oral gavage for 5 days
[5] = 30 mg/kg oral gavage for 5 days

Compound: O[C@@H](CN1c2cccc(-c3cccc(OC(F)(F)F)c3)c2CC[C@@H]1c1cccc(OC(F)(F)C(F)F)c1)C(F)(F)F [Compound 78, (S)-1,1,1-trifluoro-3-((R)-2-(3-(1,1,2,2-tetrafluoroethoxy)phenyl)-5-(3-(trifluoromethoxy)phenyl)-3,4-dihydroquinolin-1 (2H)-yl)propan-2-ol]
HDL-C (cholesterol-fed hamsters; 3 mg/kg oral gavage for 5 days, last dose 2 hrs before sacrifice): 96.2 ± 4.9 mg/dL | HDL-C/LDL-C (cholesterol-fed hamsters; 3 mg/kg oral gavage for 5 days): 3.1 ± 0.2 | LDL-C (cholesterol-fed hamsters; 3 mg/kg oral gavage for 5 days): 31.6 ± 1.9 mg/dL | Total Cholesterol (cholesterol-fed hamsters; 3 mg/kg oral gavage for 5 days): 149.3 ± 7.7 mg/dL | Triglycerides (cholesterol-fed hamsters; 3 mg/kg oral gavage for 5 days): 217.7 ± 18.1 mg/dL | HDL-C (cholesterol-fed hamsters; [4]): 117.9 ± 2.9 mg/dL | HDL-C/LDL-C (cholesterol-fed hamsters; [4]): 4.3 ± 0.3 | LDL-C (cholesterol-fed hamsters; [4]): 28.1 ± 1.8 mg/dL | Total Cholesterol (cholesterol-fed hamsters; [4]): 178.5 ± 5.4 mg/dL | Triglycerides (cholesterol-fed hamsters; [4]): 325.6 ± 24.3 mg/dL | HDL-C (cholesterol-fed hamsters; [5]): 121.4 ± 2.5 mg/dL | HDL-C/LDL-C (cholesterol-fed hamsters; [5]): 4.6 ± 0.4 | LDL-C (cholesterol-fed hamsters; [5]): 27.9 ± 2.5 mg/dL | Total Cholesterol (cholesterol-fed hamsters; [5]): 188.4 ± 9.2 mg/dL | Triglycerides (cholesterol-fed hamsters; [5]): 350.8 ± 10.9 mg/dL | % Inhibition @ 1 μM (CETP): 79% | inhibition at 1 µM (CETP): 85% | IC50 (CETP): 34 nM and 44 nM

Compound: COc1cccc(-c2cccc3c2CC[C@H](c2cccc(OC(F)(F)C(F)F)c2)N3C[C@H](O)C(F)(F)F)c1 [Compound 83]
% Inhibition @ 1 μM (CETP): 98% | inhibition at 1 µM (CETP): 100% | IC50 (CETP): 140 nM and 160 nM

Compound: O=C(CN1CCOCC1)N1c2cccc(-c3cccc(OC(F)(F)F)c3)c2CCC1c1cccc(OC(F)(F)F)c1 (centres unmarked) [Compound 88, 1-[2,5-Bis-(3-trifluoromethoxy-phenyl)-3,4-dihydro-2H-quinolin-1-yl]-2-morpholin-4-yl-ethanone]
inhibition at 1 µM (CETP): 0%

Compound: OC(CN1c2cccc(-c3cccc(OC(F)(F)F)c3)c2CCC1c1ccccc1OC(F)(F)C(F)F)C(F)(F)F (centres unmarked) [Compound 89, 1,1,1-Trifluoro-3-[2-[2-(1,1,2,2-tetrafluoro-ethoxy)-phenyl]-5-(3-trifluoromethoxy-phenyl)-3,4-dihydro-2H-quinolin-1-yl]-propan-2-ol]
% Inhibition @ 1 μM (CETP): 9%

Compound: OC(CN1c2cccc(-c3cccc(OC(F)(F)F)c3)c2CCC1c1ccccc1OC(F)(F)C(F)F)C(F)(F)F (centres unmarked) [Compound 90, 1,1,1-Trifluoro-3-[2-[2-(1,1,2,2-tetrafluoro-ethoxy)-phenyl]-5-(3-trifluoromethoxy-phenyl)-3,4-dihydro-2H-quinolin-1-yl]-propan-2-ol]
% Inhibition @ 1 μM (CETP): 0%

Compound: CCC(CC)CC1(C(=O)Nc2ccccc2SC(=O)C(C)C)CCCCC1 [JTT-705]
lesion development [1]: not efficacious in preventing lesion development | plasma triglycerides [1]: significant elevations of plasma triglycerides | CETP activity (rabbits): inhibited CETP activity | increased HDL-C (rabbits): +90% | reduced lesion size (rabbits): −70% | reduced non-HDL-C cholesterol (rabbits): −50% | HDL-C [2]: raise HDL-C | LDL-C [2]: modestly lower LDL-C | triglyceride levels [2]: not alter triglyceride levels

Compound: CCOC(=O)N1c2ccc(C(F)(F)F)cc2[C@@H](N(Cc2cc(C(F)(F)F)cc(C(F)(F)F)c2)C(=O)OC)C[C@H]1CC [Torcetrapib]
results in Phase II trials [3]: positive results in Phase II trials

The next lines start with the values.

% Inhibition @ 1 μM (CETP): 62% | IC50 (CETP): 600 nM
Compound: CCc1cc(Oc2cccc3c2CCC(c2cccc(OC(F)(F)C(F)F)c2)N3CC(O)C(F)(F)F)ccc1Cl (centres unmarked) [Compound 84, 3-{5-(4-Chloro-3-ethyl-phenoxy)-2-[3-(1,1,2,2-tetrafluro-ethoxy)-phenyl]-3,4-dihydro-2H-quinolin-1-yl}-1,1,1-trifluoro-propan-2-ol]

% Inhibition @ 1 μM (CETP): 86% | IC50 (CETP): 400 nM
Compound: CCc1cc(Oc2cccc3c2CCC(c2cccc(OC(F)(F)C(F)F)c2)N3CC(O)C(F)(F)F)ccc1Cl (centres unmarked) [Compound 85, 3-{5-(4-Chloro-3-ethyl-phenoxy)-2-[3-(1,1,2,2-tetrafluro-ethoxy)-phenyl]-3,4-dihydro-2H-quinolin-1-yl}-1,1,1-trifluoro-propan-2-ol]

inhibition at 1 µM (CETP): 67%
Compound: OC(CN1c2cccc(Oc3cccc(Cl)c3Cl)c2CCC1c1cccc(OC(F)(F)C(F)F)c1)C(F)(F)F (centres unmarked) [Compound 86, 3-{5-(2,3-Dichloro-phenoxy)-2-[3-(1,1,2,2-tetrafluoro-ethoxy)-phenyl]-3,4-dihydro-2H-quinolin-1-yl}-1,1,1-trifluoro-propan-2-ol]

% Inhibition @ 1 μM (CETP): 86% | IC50 (CETP): 400 nM
Compound: OC(CN1c2cccc(Oc3cccc(Cl)c3Cl)c2CCC1c1cccc(OC(F)(F)C(F)F)c1)C(F)(F)F (centres unmarked) [Compound 87, 3-{5-(2,3-Dichloro-phenoxy)-2-[3-(1,1,2,2-tetrafluoro-ethoxy)-phenyl]-3,4-dihydro-2H-quinolin-1-yl}-1,1,1-trifluoro-propan-2-ol]
